Common to all, as to assay type: in vivo, human
The nature of data set [1]: Phase I DDI study with sildenafil.
The nature of data set [2]: Phase I DDI study with midazolam.
Data set [3] can be described thus: Phase I DDI study with sacubitril/valsartan. As to conditions: vericiguat at steady state with sacubitril/valsartan.
Setting [4] is: sildenafil 100 mg with vericiguat vs with placebo.
[5] abbreviates: midazolam with vericiguat 10 mg vs midazolam alone.

Entries after “also recorded” stand apart in the source; their conditions may differ.

The text below walks through data of paper PMC7658073 (Clinical Pharmacokinetics, 2020).

For `CCCc1nn(C)c2c(=O)[nH]c(-c3cc(S(=O)(=O)N4CCN(C)CC4)ccc3OCC)nc12` [Sildenafil, reference compound], in data set [1] (setting [4]), the “Increase in exposure of sildenafil” value was found to be 13% and the “Increase in maximum concentration of sildenafil” value came to 17%. Moreover, the “Increase in exposure for sildenafil co-administered with vericiguat” value in data set [1] (sildenafil 25, 50 or 100 mg, vs sildenafil with placebo) was at most 22.4%.
As to `OCc1ncc2n1-c1ccc(Cl)cc1C(c1ccccc1F)=NC2` [1ʹ-hydroxy midazolam], in data set [2] (setting [5]), the “Decrease in AUC” value came to 12% and the “Decrease in Cmax” value amounted to 16%.
On to `CCOC(=O)[C@H](C)C[C@@H](Cc1ccc(-c2ccccc2)cc1)NC(=O)CCC(=O)O` [Sacubitril, reference compound], for which, in data set [3], the “Increase in AUC0–12,md (exposure)” value was determined as 8% and the “Increase in Cmax,md (peak concentration)” value stood at 18%.
For `C[C@H](C[C@@H](Cc1ccc(-c2ccccc2)cc1)NC(=O)CCC(=O)O)C(=O)O` [LBQ657] the same measures were “unchanged; also recorded: unaffected” and “unchanged; also recorded: unaffected”.
Regarding `Cc1ncc2n1-c1ccc(Cl)cc1C(c1ccccc1F)=NC2` [Midazolam, reference compound], in data set [2] (after 3 days pre-treatment and 1 day co-treatment with vericiguat 10 mg), the “Reduction in midazolam exposure” value was 18%.
Take `CCCCC(=O)N(Cc1ccc(-c2ccccc2-c2nnn[nH]2)cc1)[C@H](C(=O)O)C(C)C` [Valsartan, reference compound]: in data set [3], the “Increase in AUC0–12,md (exposure)” value turned out to be 12% and the “Increase in Cmax,md (peak concentration)” value is 13%.
